For orientation: pIC50 means the negative decadic logarithm of the IC50, by convention in mol/L. A lower pIC50 goes with a large IC50.

The record followed here is patent publication US20100216779A1 (GLAXOSMITHKLINE LLC, priority 2007, published 2010).

The subject of one assay is COLO205 (colon). Nature of the assay: Inhibition of cell proliferation, CellTiter-Glo, COLO205. In kind it is cell-based. Particulars: Homo sapiens, COLO 205, 72 h. On the procedure: C. Inhibition of Cell Proliferation
Cell proliferation was measured by either CellTiter-Glo (measures cellular ATP level as a surrogate for total cell number) or by InCell analyzer (counts number of nuclei as a measure of cell number). For CellTiter-Glo assay, exponentially growing cell lines of different tumor origins, cultured in appropriate media containing 10% fetal bovine serum at 37° C. in a 5% CO2 incubator, were plated at low density (less than 2000 cells/well) in 96-well plates. […] Several wells were left untreated as a control. Seventy two hours post-treatment, cell numbers were determined using 50-100 ul per well of CellTiter-Glo (Promega #G7573). Plates were incubated at 37° C. for 30 minutes and the chemiluminescent signal was read on the Victor V or Envison 2100 reader. […]
(Cellular ATP, detected with luciferase, serves as a proxy for viable cell number.)

Assay [1] deals with T1, human IGF-1R (NIH-3T3 cells over expressing human IGF-1R) (Homo sapiens, UniProt P08069).
T1 construct: expressed in transfected cells; host or cells: NIH-3T3 (mouse fibroblasts)
Nature of the assay: IGF-1R cellular autophosphorylation (DELFIA). The following applies: IGF-1 stimulated. In kind it is cell-based. On the procedure: D. IGF-1R and IR Cellular Autophosphorylation (DELFIA)
NIH-3T3 cells over expressing human IGF-1R or IR were plated in 96-well plates (10,000 cells/well) in culture media containing 10% fetal bovine serum and incubated at 37° C. in a 5% CO2 incubator. Twenty four hours post-plating, cells were treated with different concentrations of test compounds ranging from 30 uM to 1.5 nM. Two hours after compound addition, cells were stimulated with either human IGF-1 (30 ng/mL) or insulin (3 ug/mL) for 15 minutes. Cell lysates are analyzed for phosphorylated receptors using dissociation enhanced lanthanide fluor-immuno assay (DELFIA) with anti-IGF-1R (MAB391, R&D Systems, Minneapolis, Minn.) or anti-IR[…](sc-711, Santa Cruz Biotechnology, Santa Cruz, Calif.) capture antibody and europium-labeled anti-pTyr antibody (Eu-N1 PT66, Perkin Elmer, Waltham, Mass.) for detection. The fluorescence signal for cells treated with compounds was expressed as percent relative to 100% stimulation (IGF-1 or insulin stimulated signal). […]

SMILES strings stand for the structures. pIC50: −log10 of the molar value.

T1 sequence (P08069 31-1367): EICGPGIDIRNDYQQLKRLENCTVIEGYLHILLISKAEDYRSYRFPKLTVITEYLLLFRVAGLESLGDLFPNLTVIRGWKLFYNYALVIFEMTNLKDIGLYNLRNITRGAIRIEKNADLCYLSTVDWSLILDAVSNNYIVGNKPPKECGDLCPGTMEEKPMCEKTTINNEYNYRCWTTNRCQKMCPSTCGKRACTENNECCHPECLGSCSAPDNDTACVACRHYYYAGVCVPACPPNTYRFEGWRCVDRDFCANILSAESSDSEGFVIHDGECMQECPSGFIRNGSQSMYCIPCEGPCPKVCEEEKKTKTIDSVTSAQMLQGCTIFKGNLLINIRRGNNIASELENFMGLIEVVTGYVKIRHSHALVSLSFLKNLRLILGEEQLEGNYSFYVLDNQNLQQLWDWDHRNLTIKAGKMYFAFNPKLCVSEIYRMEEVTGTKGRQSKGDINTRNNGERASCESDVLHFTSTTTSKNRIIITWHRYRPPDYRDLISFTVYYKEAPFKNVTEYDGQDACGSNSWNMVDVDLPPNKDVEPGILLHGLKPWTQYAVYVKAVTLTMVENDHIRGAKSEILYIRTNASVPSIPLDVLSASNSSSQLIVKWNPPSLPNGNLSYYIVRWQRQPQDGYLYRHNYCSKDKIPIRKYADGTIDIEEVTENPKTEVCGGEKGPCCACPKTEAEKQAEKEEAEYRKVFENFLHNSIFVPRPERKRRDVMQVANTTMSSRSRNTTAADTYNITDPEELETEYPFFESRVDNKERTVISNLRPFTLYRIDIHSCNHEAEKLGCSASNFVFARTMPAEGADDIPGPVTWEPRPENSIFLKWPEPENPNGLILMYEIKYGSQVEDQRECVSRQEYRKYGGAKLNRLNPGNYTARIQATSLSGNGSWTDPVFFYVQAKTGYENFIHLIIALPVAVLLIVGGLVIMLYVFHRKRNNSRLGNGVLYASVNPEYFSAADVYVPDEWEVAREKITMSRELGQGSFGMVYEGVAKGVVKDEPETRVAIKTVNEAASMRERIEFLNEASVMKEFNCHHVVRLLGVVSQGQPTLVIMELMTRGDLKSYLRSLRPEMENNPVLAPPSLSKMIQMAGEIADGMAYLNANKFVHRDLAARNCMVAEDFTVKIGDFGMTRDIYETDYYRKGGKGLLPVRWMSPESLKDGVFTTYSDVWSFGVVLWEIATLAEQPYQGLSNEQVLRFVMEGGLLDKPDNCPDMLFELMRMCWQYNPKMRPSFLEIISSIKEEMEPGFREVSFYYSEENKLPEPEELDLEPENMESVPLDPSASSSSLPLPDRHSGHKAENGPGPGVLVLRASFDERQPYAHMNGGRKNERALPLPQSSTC

Consider `COc1ccc(N2CCC(N3CCCCC3)CC2)cc1Nc1nccc(-c2c(-c3ccc(OC)c(C(=O)Nc4c(F)cccc4F)c3)nc3ccccn23)n1` [Example 31, 5-[3-(2-{[5-(1,4′-bipiperidin-1-yl)-2-(methyloxy)phenyl]amino}-4-pyrimidinyl)imidazo[1,2-a]pyridin-2-yl]-N-(2,6-difluorophenyl)-2-(methyloxy)benzamide], for which the pIC50 in the assay with COLO205 (colon) was 6.00 to 6.60; in assay [1], over 7.00.

Regarding `COc1ccc(N2CCC(N3CCCCC3)CC2)cc1Nc1nccc(-c2c(-c3cccc(C(=O)Nc4c(F)cccc4F)c3)nc3ccccn23)n1` [Example 30, 3-[3-(2-{[5-(1,4′-bipiperidin-1′-yl)-2-(methyloxy)phenyl]amino}-4-pyrimidinyl)imidazo[1,2-a]pyridin-2-yl]-N-(2,6-difluorophenyl)benzamide], the figures for the negative-log IC50 (pIC50) (in the assay with COLO205 (colon); in assay [1]) were 6.00 to 6.60 and 6.30 to 7.00, respectively. The molecule `COc1cc(-c2nnc(CN3CCCC3)o2)ccc1Nc1nccc(-c2c(-c3ccc(OC)c(C(=O)Nc4c(F)cccc4F)c3)nc3ccccn23)n1` [Example 28, N-(2,6-difluorophenyl)-2-(methyloxy)-5-{3-[2-({2-(methyloxy)-4-[5-(1-pyrrolidinylmethyl)-1,3,4-oxadiazol-2-yl]phenyl]amino)-4-pyrimidinyl}imidazo[1,2-a]pyridin-2-yl}benzamide] had a pIC50 in assay [1] of 6.30 to 7.00. As to `COc1cc(N2CCC(N3CCC[C@H](O)C3)CC2)ccc1Nc1nccc(-c2c(-c3ccc(OC)c(C(=O)Nc4c(F)cccc4F)c3)nc3ccccn23)n1` [Example 84, N-(2,6-difluorophenyl)-5-[3-(2-{[4-[(3S)-3-hydroxy-1,4′-bipiperidin-1′-yl]-2-(methyloxy)-phenyl]amino}-4-pyrimidinyl)imidazo[1,2-a]pyridin-2-yl]-2-(methyloxy)benzamide], the negative-log IC50 (pIC50) is over 6.60 in the assay with COLO205 (colon) and over 7.00 in assay [1]. For `COc1ccc(-c2nc3ccccn3c2-c2ccnc(Nc3cccc(CN4CCN(C)CC4)c3C)n2)cc1C(=O)Nc1c(F)cccc1F` [Example 25, N-(2,6-difluorophenyl)-5-{3-[2-({2-methyl-3-[(4-methyl-1-piperazinyl)methyl]phenyl}amino)-4-pyrimidinyl}imidazo[1,2-a]pyridin-2-yl]-2-(methyloxy)benzamide] the same measures were 6.00 to 6.60 and 6.30 to 7.00. As to `COc1cc(CCN2CCCCC2)c(F)cc1Nc1nccc(-c2c(-c3cccc(C(=O)Nc4c(F)cc(F)cc4F)c3)nc3ccccn23)n1` [Example 129, 3-{3-[2-({5-fluoro-2-(methyloxy)-4-[2-(1-piperidinyl)ethyl]phenyl}amino)-4-pyrimidinyl]imidazo[1,2-a]pyridin-2-yl}-N-(2,4,6-trifluorophenyl)benzamide], the pIC50 was 6.00 to 6.60 in the assay on COLO205 (colon) and 6.30 to 7.00 in assay [1]. `COc1cc(N2CCC(N3CCN(S(C)(=O)=O)CC3)CC2)ccc1Nc1nccc(-c2c(-c3ccc(OC)c(C(=O)Nc4c(F)cccc4F)c3)nc3ccccn23)n1` [Example 69] gave a pIC50 in the assay with COLO205 (colon) of 6.00 to 6.60. In the case of `CN(C)CCOc1cccc(Nc2nccc(-c3c(-c4cccc(C(=O)Nc5c(F)cccc5F)c4)nc4ccccn34)n2)c1` [Example 20, N-(2,6-difluorophenyl)-3-(3-{2-[(3-{[2-(dimethylamino)ethyl]oxy}phenyl)amino]-4-pyrimidinyl}imidazo[1,2-a]pyridin-2-yl)benzamide], the pIC50 with COLO205 (colon) was over 6.60; in assay [1] it was 6.30 to 7.00.

Turning to `COc1cc(N2CCC(OC)CC2)ccc1Nc1nccc(-c2c(-c3ccc(OC)c(C(=O)Nc4c(F)cccc4F)c3)nc3ccccn23)n1` [Example 126, N-(2,6-difluorophenyl)-2-(methyloxy)-5-{3-[2-({2-(methyloxy)-4-[4-(methyloxy)-1-piperidinyl}phenyl}amino)-4-pyrimidinyl]imidazo[1,2-a]pyridin-2-yl]benzamide], the pIC50 with COLO205 (colon) is 6.00 to 6.60; in assay [1], over 7.00. The like results for `COc1cc(N2CCC(OC)CC2)ccc1Nc1nccc(-c2c(-c3cccc(C(=O)Nc4c(F)cccc4F)c3)nc3ccccn23)n1` [Example 125, N-(2,6-difluorophenyl)-3-{3-[2-({2-(methyloxy)-4-[4-(methyloxy)-1-piperidinyl]phenyl}-amino)-4-pyrimidinyl}imidazo[1,2-a]pyridin-2-yl]benzamide] were, in that order, 6.00 to 6.60 and over 7.00. For the molecule `COc1cc(N2CCC(N3CCCC(F)(F)C3)CC2)ccc1Nc1nccc(-c2c(-c3cccc(C(=O)Nc4c(F)cccc4F)c3)nc3ccccn23)n1` [Example 75, 3-[3-(2-{[4-(3,3-difluoro-1,4′-bipiperidin-1′-yl)-2-(methyloxy)phenyl]amino]-4-pyrimidinyl)imidazo[1,2-a]pyridin-2-yl]-N-(2,6-difluorophenyl)benzamide], the pIC50 in the assay with COLO205 (colon) was 6.00 to 6.60; in assay [1], over 7.00. In assay [1], `COc1cc(-c2nnc(CN3CCCC3)o2)ccc1Nc1nccc(-c2c(-c3cccc(C(=O)Nc4c(F)cccc4F)c3)nc3ccccn23)n1` [Example 29, N-(2,6-difluorophenyl)-3-{3-[2-({2-(methyloxy)-4-[5-(1-pyrrolidinylmethyl)-1,3,4-oxadiazol-2-yl]phenyl}amino)-4-pyrimidinyl]imidazo[1,2-a]pyridin-2-yl}benzamide] gave a pIC50 of 6.30 to 7.00. Take `COc1cc(CCN2CCCCC2)c(F)cc1Nc1nccc(-c2c(-c3ccc(OC)c(C(=O)Nc4c(F)cccc4F)c3)nc3ccccn23)n1` [Example 127, N-(2,6-difluorophenyl)-5-{3-[2-({5-fluoro-2-(methyloxy)-4-[2-(1-piperidinyl)ethyl]phenyl}-amino)-4-pyrimidinyl}imidazo[1,2-a]pyridin-2-yl}-2-(methyloxy)benzamide]: the pIC50 in the assay on COLO205 (colon) was 6.00 to 6.60; in assay [1], over 7.00. The like results for `COc1cc(CCN2CCN(C)CC2)ccc1Nc1nccc(-c2c(-c3cccc(C(=O)Nc4c(F)cccc4F)c3)nc3ccccn23)n1` [Example 132, N-(2,6-difluorophenyl)-3-{3-[2-({2-(methyloxy)-4-[2-(4-methyl-1-piperazinyl)ethyl]phenyl}amino)-4-pyrimidinyl]imidazo[1,2-a]pyridin-2-yl}benzamide] were, in that order, 6.00 to 6.60 and over 7.00. In assay [1], `CN(C)CCOc1cccc(Nc2nccc(-c3c(-c4cccc(C(=O)Nc5cc(C(F)(F)F)ccc5F)c4)nc4ccccn34)n2)c1` [Example 10, 3-(3-{2-[(3-{[2-(dimethylamino)ethyl]oxy}phenyl)amino]-4-pyrimidinyl}imidazo[1,2-a]pyridin-2-yl)-N-[2-fluoro-5-(trifluoromethyl)phenyl]benzamide] showed a pIC50 of 6.30 to 7.00. Still for that read-out and setting: the figure for `CN(C)CCOc1cccc(Nc2nccc(-c3c(-c4cccc(C(=O)Nc5ccc(F)cc5F)c4)nc4ccccn34)n2)c1` [Example 13] is over 7.00; for `CN(C)CCOc1cccc(Nc2nccc(-c3c(-c4cccc(C(=O)Nc5cc(Cl)ccc5F)c4)nc4ccccn34)n2)c1` [Example 9, N-(5-chloro-2-fluorophenyl)-3-(3-{2-[(3-{[2-(dimethylamino)ethyl]oxy}phenyl)amino]-4-pyrimidinyl}imidazo[1,2-a]pyridin-2-yl)benzamide] it is 6.30 to 7.00. `Cc1ccn2c(-c3ccnc(Nc4cccc(OCCN(C)C)c4)n3)c(-c3cccc(C(=O)Nc4c(F)cccc4F)c3)nc2c1` [Example 14, N-(2,6-difluorophenyl)-3-(3-{2-[(3-{[2-(dimethylamino)ethyl]oxy}phenyl)amino]-4-pyrimidinyl}-7-methylimidazo[1,2-a]pyridin-2-yl)benzamide] had a pIC50 in assay [1] of under 6.30.
